{
  "source": "patent US9346761B2",
  "about": "“Arginine methyltransferase inhibitors and uses thereof” (Epizyme, Inc., priority 2013, dated 2016)",
  "key": {"Full-length human PRMT3": {"target": "T1, Full-length human PRMT3 (Homo sapiens, UniProt O60678)", "T1 construct": "GST-tagged PRMT3; made in house; host or cells: E. coli BL21(DE3) Gold (pGEX-KG)", "T1 sequence (O60678 with tags, fused parts or gaps)": "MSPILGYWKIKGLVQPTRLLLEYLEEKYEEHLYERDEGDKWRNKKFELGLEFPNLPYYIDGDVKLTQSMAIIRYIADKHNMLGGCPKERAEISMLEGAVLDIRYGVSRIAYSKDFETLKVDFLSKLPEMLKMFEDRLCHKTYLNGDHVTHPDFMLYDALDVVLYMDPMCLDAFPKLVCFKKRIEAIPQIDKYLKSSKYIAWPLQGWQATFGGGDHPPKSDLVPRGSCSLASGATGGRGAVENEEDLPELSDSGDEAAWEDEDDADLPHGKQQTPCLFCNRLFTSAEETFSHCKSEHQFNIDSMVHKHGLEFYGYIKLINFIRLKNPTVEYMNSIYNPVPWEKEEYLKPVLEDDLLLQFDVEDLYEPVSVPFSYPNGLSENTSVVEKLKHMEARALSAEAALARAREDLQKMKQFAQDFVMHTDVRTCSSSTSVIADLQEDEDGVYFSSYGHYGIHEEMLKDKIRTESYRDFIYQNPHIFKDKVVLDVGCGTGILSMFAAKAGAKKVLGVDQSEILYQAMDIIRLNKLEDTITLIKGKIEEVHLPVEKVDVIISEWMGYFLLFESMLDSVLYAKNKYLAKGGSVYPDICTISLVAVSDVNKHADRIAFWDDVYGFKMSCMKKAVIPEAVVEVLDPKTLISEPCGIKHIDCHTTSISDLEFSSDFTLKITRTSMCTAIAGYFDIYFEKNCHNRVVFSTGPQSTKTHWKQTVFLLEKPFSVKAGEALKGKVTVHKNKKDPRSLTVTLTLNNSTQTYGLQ", "assay": "PRMT3 biochemical assay (3H-SAM Flashplate, peptide substrate)", "source_text": "(§1) General Materials. S-adenosylmethionine (SAM), S-adenosylhomocysteine (SAH), bicine, Tween20, dimethylsulfoxide (DMSO), bovine skin gelatin (BSG),), isopropyl-β-D-thiogalactopyranoside (IPTG), and Tris(2-carboxyethyl)phosphine hydrochloride solution (TCEP) were purchased from Sigma-Aldrich at the highest level of purity possible. ^3H-SAM was purchase from American Radiolabeled Chemicals with a specific activity of 80 Ci/mmol. 384-well streptavidin Flashplates were purchased from PerkinElmer.\nSubstrates. Peptide containing the classic RMT substrate motif was synthesized with an N-terminal linker-affinity tag motif and a C-terminal amide cap by 21st Century Biochemicals. The peptide was purified by high-performance liquid chromatography (HPLC) to greater than 95% purity and confirmed by liquid chromatography mass spectrometry (LC-MS). The sequence was Biot-Ahx-[…]-amide (SEQ ID NO.:11).\nMolecular Biology: : Full-length human PRMT3 (NM_005788.3) isoform 1 transcript clone was amplified from an HEK 293 cDNA library and subcloned into pGEX-KG (GE Life Sciences). The resulting construct encodes an N-terminal GST tag and a thrombin cleavage sequence ([…] […] […] […]) (SEQ ID NO.:12) fused directly to Cys 2 of PRMT3.\nProtein Expression. E. coli (BL21(DE3) Gold, Stratagene) made competent by the CaCl2 method were transformed with the PRMT3 construct and ampicillin selection. Protein over-expression was accomplished by growing the PRMT3 expressing E. coli clone and inducing expression with 0.3 mM IPTG at 16° C. The culture was grown for 12 hours, harvested by centrifugation, and stored at −80° C. for purification.\nProtein Purification. […] GST-tagged PRMT3 eluted with 25-400 mM phosphate in buffer C. Protein was concentrated and buffer was exchanged to 20 mM Tris, 150 mM NaCl, 5% glycerol, 5 mM β-mercaptoethanol, pH7.8 by ultrafiltration. The purity of recovered protein was 70%.\n(§2) General Procedure for PRMT3 Enzyme Assays on Peptide Substrates. The assays were all performed in a buffer consisting of 20 mM Bicine (pH=7.6), 1 mM TCEP, 0.005% BSG, and 0.002% Tween 20, prepared on the day of use. Compounds in 100% DMSO (1 ul) were spotted into a polypropylene 384-well V-bottom plates (Greiner) using a Platemate Plus outfitted with a 384-channel head (Thermo Scientific). DMSO (1 ul) was added to Columns 11, 12, 23, 24, rows A-H for the maximum signal control and 1 ul of SAH, a known product and inhibitor of PRMT3, was added to columns 11, 12, 23, 24, rows I-P for the minimum signal control. A cocktail (40 ul) containing the PRMT3 enzyme was added by Multidrop Combi (Thermo-Fisher). The compounds were allowed to incubate with PRMT3 for 30 min at room temperature, then a cocktail (10 ul) containing SAM and peptide was added to initiate the reaction (final volume=51 ul). The final concentrations of the components were as follows: PRMT3 was 0.5 nM, ^3H-SAM was 100 nM, non-radiolabeled SAM was 1.8 uM, peptide was 330 nM, SAH in the minimum signal control wells was 1 mM, and the DMSO concentration was 2%. The assays were stopped by the addition of potassium chloride (10 ul) to a final concentration of 100 mM. 50 ul of the reaction in the 384-well polypropylene plate was then transferred to a 384-well Flashplate and the biotinylated peptides were allowed to bind to the streptavidin surface for at least 1 hour before being washed once with 0.1% Tween20 in a Biotek ELx405 plate washer. The plates were then read in a PerkinElmer TopCount plate reader to measure the quantity of ^3H-labeled peptide bound to the Flashplate surface, measured as disintegrations per minute (dpm) or alternatively, referred to as counts per minute (cpm).\n(§3) Where dpm=disintegrations per minute, cmpd=signal in assay well, and min and max are the respective minimum and maximum signal controls.\nWhere top and bottom are the normally allowed to float, but may be fixed at 100 or 0 respectively in a 3-parameter fit. […]"}, "[1]": {"system": "mono-methyl arginine in RKO cells", "assay": "RKO methylation assay, In Cell Western for mono-methyl arginine and DNA content", "type": "cell-based", "conditions": "Homo sapiens; In Cell Western, RKO cells, 72 hours, percent activation of mono-methyl arginine signal; read-out: EC30", "source_text": "RKO adherent cells were purchased from ATCC (American Type Culture Collection), Manassas, Va., USA. DMEM/Glutamax medium, penicillin-streptomycin, heat inactivated fetal bovine serum, 0.05% trypsin and D-PBS were purchased from Life Technologies, Grand Island, N.Y., USA. Odyssey blocking buffer, 800CW goat anti-rabbit IgG (H+L) antibody, and Licor Odyssey infrared scanner were purchased from Licor Biosciences, Lincoln, Nebr., USA. Mono-methyl arginine antibody was purchased from Cell Signaling Technology, Danvers, Mass., USA. Methanol was purchased from VWR, Franklin, Mass., USA. 10% Tween 20 was purchased from KPL, Inc., Gaithersburg, Md., USA. […] was purchased from Biostatus Limited, Leicestershire, UK.\nRKO adherent cells were maintained in growth medium (DMEM/Glutamax medium supplemented with 10% v/v heat inactivated fetal bovine serum and 100 units/mL penicillin-streptomycin) and cultured at 37° C. under 5% CO2\nCell Treatment, in Cell Western (ICW) for Detection of Mono-Methyl Arginine and DNA Content. […] Compound (100 nL) from a 96-well source plate was added directly to 384 well cell plate. Plates were incubated at 37° C., 5% CO2 for 72 hours. After three days of incubation, plates were brought to room temperature outside of the incubator for ten minutes and blotted on paper towels to remove cell media. 50 μL of ice cold 100% methanol was added directly to each well and incubated for 30 min at room temperature. After 30 min, plates were transferred to a Biotek EL406 plate washer and washed 2 times with 100 μL per well of wash buffer (1×PBS). Next 60 μL per well of Odyssey blocking buffer (Odyssey Buffer with 0.1% Tween 20 (v/v)) were added to each plate and incubated 1 hour at room temperature. Blocking buffer was removed and 20 μL per well of primary antibody was added (mono-methyl arginine diluted 1:200 in Odyssey buffer with 0.1% Tween 20 (v/v)) and plates were incubated overnight (16 hours) at 4° C. Plates were washed 5 times with 100 μL per well of wash buffer. […] The plates were washed 5 times with 100 μL per well wash buffer then 2 times with 100 μL per well of water. Plates were allowed to dry at room temperature then imaged on the Licor Odyssey machine which measures integrated intensity at 700 nm and 800 nm wavelengths. Both 700 and 800 channels were scanned.\nCalculations: First, the ratio for each well was determined by:\nEach plate included fourteen control wells of DMSO only treatment (minimum activation) as well as fourteen control wells for maximum activation treated with 20 μM of a reference compound. The average of the ratio values for each control type was calculated and used to determine the percent activation for each test well in the plate. Reference compound was serially diluted three-fold in DMSO for a total of nine test concentrations, beginning at 20 μM. Percent activation was determined and EC30 curves were generated using triplicate wells per concentration of compound."}, "[2]": {"target": "T2, Full-length human PRMT1 isoform 1 (Homo sapiens, UniProt Q99873)", "T2 construct": "GST-tagged PRMT1; made in house; host or cells: High Five insect cells (baculovirus, pFastBacI)", "T2 sequence (Q99873 with tags, fused parts or gaps)": "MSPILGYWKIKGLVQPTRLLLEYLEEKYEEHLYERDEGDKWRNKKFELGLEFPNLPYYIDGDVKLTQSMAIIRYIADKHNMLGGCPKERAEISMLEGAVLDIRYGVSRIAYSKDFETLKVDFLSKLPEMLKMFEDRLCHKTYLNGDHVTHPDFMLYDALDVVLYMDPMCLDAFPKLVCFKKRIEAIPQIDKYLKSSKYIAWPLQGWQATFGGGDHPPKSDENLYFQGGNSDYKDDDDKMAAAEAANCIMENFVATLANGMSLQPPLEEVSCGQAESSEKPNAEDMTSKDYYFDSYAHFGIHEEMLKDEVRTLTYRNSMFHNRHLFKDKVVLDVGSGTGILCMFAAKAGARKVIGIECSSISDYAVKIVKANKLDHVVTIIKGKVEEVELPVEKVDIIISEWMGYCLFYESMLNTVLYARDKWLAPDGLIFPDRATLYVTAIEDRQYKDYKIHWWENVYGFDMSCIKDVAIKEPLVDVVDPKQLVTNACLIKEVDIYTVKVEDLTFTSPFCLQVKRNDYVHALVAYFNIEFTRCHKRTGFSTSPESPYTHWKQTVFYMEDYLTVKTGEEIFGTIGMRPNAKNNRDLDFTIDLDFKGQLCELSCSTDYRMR", "assay": "PRMT1 biochemical assay (3H-SAM Flashplate, peptide substrate)", "source_text": "as §1, with “(BSG),” for “(BSG),), isopropyl-β-D-thiogalactopyranoside (IPTG),”\nProtein Expression. Recombinant baculovirus were generated according to Bac-to-Bac kit instructions (Life Technologies). […] Infections were carried out at 27° C. for 48 hours, harvested by centrifugation, and stored at −80° C. for purification.\nProtein Purification. […] GST-tagged PRMT1 was eluted with 50 mM Tris, 2 mM glutathione, pH 7.8, dialysed in buffer A and concentrated to 1 mg/mL.\nas §2, with “PRMT1” for “PRMT3”, “Compounds in 100% DMSO (1 ul) were spotted into a polypropylene 384-well V-bottom plates (Greiner) using a Platemate Plus outfitted with a 384-channel head (Thermo Scientific).” left out, “PRMT1,” for “PRMT3,”, “The final concentrations of the components were as follows: PRMT3 was 0.5 nM, ^3H-SAM was 100 nM, non-radiolabeled SAM was 1.8 uM, peptide was 330 nM, SAH in the minimum signal control wells was 1 mM, and the DMSO concentration was 2%.” left out, “non-radiolabeled SAM” for “potassium chloride”, “300 uM, which dilutes the ^3H-SAM to a level where its incorporation into the peptide substrate is no longer detectable.” for “100 mM.”\nas §3\n(§4) Where top and bottom are the normally allowed to float, but may be fixed at 100 or 0 respectively in a 3-parameter fit. The Hill Coefficient normally allowed to float but may also be fixed at 1 in a 3-parameter fit. Y is the % inhibition and X is the compound concentration."}, "Full-length human PRMT6": {"target": "T3, Full-length human PRMT6 (Homo sapiens, UniProt Q96LA8)", "T3 construct": "Flag-PRMT6-His was eluted with 200 ug/ml FLAG peptide in the same buffer; made in house; host or cells: HEK 293F cells (BacMam virus, pFastBacMam)", "T3 sequence (Q96LA8 with tags, fused parts or gaps)": "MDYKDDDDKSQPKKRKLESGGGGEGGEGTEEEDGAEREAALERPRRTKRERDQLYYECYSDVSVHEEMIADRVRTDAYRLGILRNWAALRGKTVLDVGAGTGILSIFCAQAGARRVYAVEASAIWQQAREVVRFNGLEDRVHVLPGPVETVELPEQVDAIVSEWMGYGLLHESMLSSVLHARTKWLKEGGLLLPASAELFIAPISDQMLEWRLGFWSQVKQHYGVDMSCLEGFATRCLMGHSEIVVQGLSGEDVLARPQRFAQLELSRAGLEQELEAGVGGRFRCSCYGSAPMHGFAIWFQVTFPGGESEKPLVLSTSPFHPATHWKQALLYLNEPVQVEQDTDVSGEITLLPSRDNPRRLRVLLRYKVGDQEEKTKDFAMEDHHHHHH", "assay": "PRMT6 biochemical assay (3H-SAM Flashplate, peptide substrate)", "source_text": "as §1, with “(BSG), sodium butyrate” for “(BSG),), isopropyl-β-D-thiogalactopyranoside (IPTG),”\nSubstrates. Peptide representative of human histone H4 residues 36-50 was synthesized with an N-terminal linker-affinity tag motif and a C-terminal amide cap by 21st Century Biochemicals.\nThe amplified gene was subcloned into pFastBacMam (Viva Biotech).\nProtein Expression. Recombinant baculovirus were generated according to Bac-to-Bac kit instructions (Life Technologies). […] Infections were carried out at 37° C. for 48 hours, harvested by centrifugation, and stored at −80° C. for purification.\nProtein Purification. […] Column was washed with 20 mM imidazole in the same buffer and Flag-PRMT6-His was eluted with 150 mM imidazole. Pooled fractions were dialysed against buffer Ni-A and further purified by anti-flag M2 affinity chromatography. Flag-PRMT6-His was eluted with 200 ug/ml FLAG peptide in the same buffer. Pooled fractions were dialysed in 20 mM Tris, 150 mM NaCl, 10% glycerol and 5 mM β-mercaptoethanol, pH 7.8.\nas §2, with “PRMT6” for “PRMT3”, “Compounds in 100% DMSO (1 ul) were spotted into a polypropylene 384-well V-bottom plates (Greiner) using a Platemate Plus outfitted with a 384-channel head (Thermo Scientific).” left out, “PRMT6,” for “PRMT3,”, “The final concentrations of the components were as follows: PRMT3 was 0.5 nM, ^3H-SAM was 100 nM, non-radiolabeled SAM was 1.8 uM, peptide was 330 nM, SAH in the minimum signal control wells was 1 mM, and the DMSO concentration was 2%.” left out, “non-radiolabeled SAM” for “potassium chloride”, “400 uM, which dilutes the ^3H-SAM to a level where its incorporation into the peptide substrate is no longer detectable.” for “100 mM.”\nas §3, §4"}},
  "data": [
    {"smiles": "CC(C)Cc1ccc(-c2n[nH]cc2CN(C)CCN)cc1", "note": "[Compound 165]", "values": [
      {"measurement": "IC50", "setting": "Full-length human PRMT3", "value": "1.01 to 3", "unit": "µM"},
      {"measurement": "EC30", "setting": "[1]", "value": "< 3", "unit": "µM"}
    ]},
    {"smiles": "CNCCN(C)Cc1c[nH]nc1-c1ccc(Oc2cccc(C#N)c2)cc1", "note": "[Compound 261]", "values": [
      {"measurement": "IC50", "setting": "[2]", "value": "< 0.1", "unit": "µM"},
      {"measurement": "IC50", "setting": "Full-length human PRMT6", "value": "< 0.1", "unit": "µM"},
      {"measurement": "EC30", "setting": "[1]", "value": "< 3", "unit": "µM"}
    ]}
  ]
}
